Consider 16 compounds from patent US6982348B2, “Aminoethanol derivatives” (Takeda Pharmaceutical Company Limited, priority 2001, dated 2006).

Series [1] deals with T1, human CETP (Homo sapiens, UniProt P11597).
T1 sequence (P11597 18-493): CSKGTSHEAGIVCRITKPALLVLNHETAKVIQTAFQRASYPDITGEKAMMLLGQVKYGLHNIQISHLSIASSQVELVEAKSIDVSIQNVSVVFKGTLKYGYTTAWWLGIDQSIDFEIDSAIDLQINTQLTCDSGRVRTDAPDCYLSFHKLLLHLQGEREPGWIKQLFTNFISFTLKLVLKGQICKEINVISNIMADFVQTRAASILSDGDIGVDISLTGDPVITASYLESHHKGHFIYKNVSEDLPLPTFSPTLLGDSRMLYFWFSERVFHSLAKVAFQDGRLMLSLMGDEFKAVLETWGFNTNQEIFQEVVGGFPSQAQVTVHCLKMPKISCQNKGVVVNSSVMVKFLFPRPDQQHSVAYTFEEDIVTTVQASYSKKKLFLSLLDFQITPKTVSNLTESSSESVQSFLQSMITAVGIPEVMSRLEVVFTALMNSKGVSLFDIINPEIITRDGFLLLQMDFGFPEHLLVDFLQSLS
Kind of series: Assay of cholesteryl ester transfer protein inhibitory activity, standard measurement system. In kind it is biochemical. Conditions: BODIPY-CE-ME donor, VLDL-LDL acceptor, reaction at 37° C. for 30 min. The method, then: (§1) Assay of Cholesteryl Ester Transfer Protein Inhibitory Activity
(§2) Fresh rabbit serum was adjusted with KBr to the density of (1.063 g/ml), and the fractions (VLDL-LDL, density<1.063 g/ml) floated by ultra-centrifugation operation (SW41—Ti, 40,000 rpm, 18 hrs., 4° C., Beckman model L8-55) were collected, subjected to dialysis against 0.15 M NaCl-10 mM Tris-HCl, pH 7.4 (TBS), sterilized by filtration through a filter and preserved at 4° C.
(§3) A solution of BODIPY-CE (0.6 mg) in chloroform was added to egg PC (phosphatidylcholine) ([…]) and triolein (2 mg), and after dissolution, the lipid was air dried under a nitrogen gas reflux and the solvent was removed under high vacuum. To this lipid was added an apo HDL solution (7.5 ml) obtained by defatting human HDL (1.063<d<1.21) with chloroform-methanol (2:1, v/v), dissolving in 6 M urea-containing TBS and dialyzing against TBS, and the mixture was subjected to sonication (BRANSON SONIFIRE CELL DISRUPTOR 200, dial 6, 5 min×4) to give BOBIPY-CE-ME. After centrifugation (CENTRIPREP 10), it was sterilized by filtration through a filter and preserved at 4° C.
The test compound (20% DMSO solution, 5 μl), TS (75 μl), acceptor lipoprotein (VLDL-LDL, 20 μl) and partially purified human CETP (25 μl) were mixed and incubated at 37° C. for 30 min. BODIPY-CE-ME (25 μl) was added (total 150 μl) and a transfer reaction was started. After reaction at 37° C. for 30 min., fluorescence intensity was measured at Ex. 490 nm/Em. 530 nm. The CETP inhibitory activity (% inhibition) was calculated by the following formula. [formula] 4) 50% Human Plasma-Containing Measurement System
(§4) The IC50 value was determined as a concentration showing 50% inhibition by plotting the logarithm of the concentration of test compound and % inhibition.

Series [2] addresses T1, human CETP. Kind of series: Assay of cholesteryl ester transfer protein inhibitory activity, 50% human plasma-containing measurement system. In kind it is biochemical. To be noted: BODIPY-CE-ME donor, VLDL-LDL acceptor, reaction at 37° C. for 60 min. As to the method: as §1, §2, §3
The test compound (20% DMSO solution, 5 μl), human plasma (75 μl), acceptor lipoprotein (VLDL-LDL, 20 μl) and partially purified human CETP (25 μl) were mixed and incubated at 37° C. for 30 min. BODIPY-CE-ME (25 μl) was added (total 150 μl) and a transfer reaction was started. After reaction at 37° C. for 60 min., fluorescence intensity was measured at Ex. 490 nm/Em. 530 nm. The CETP inhibitory activity (% inhibition) was calculated by the following formula. [formula]
as §4

Molecules are shown by their SMILES.

The term IC50 denotes the concentration needed to halve the response being measured. A low value points to greater potency in that assay. By melting point is commonly meant the temperature, or range, at which the solid turns liquid. As for `O=C(N[C@H](Cc1ccc(C(F)(F)F)cc1)[C@@H](O)c1ccc(F)cc1)c1ccc(F)c2ccccc12` (racemic) [Example 30, 4-fluoro-N-((1RS,2SR)-2-(4-fluorophenyl)-2-hydroxy-1-((4-(trifluoromethyl)phenyl)methyl)ethyl)-1-naphthalenecarboxamide], the melting point is 210 to 211 °C. The compound further showed a 50% inhibitory concentration (IC50) against human CETP [1] of 0.3 µM. Besides, the midpoint of inhibition at human CETP [2], the IC50, lay at 2.5 µM.

Compound `O=C(N[C@H](Cc1cccc(OC(F)(F)C(F)F)c1)[C@@H](O)c1ccc(F)cc1)c1cccc2c1C=CCCC2` (racemic) [Example 122, N-[(1RS,2SR)-2-(4-fluorophenyl)-2-hydroxy-1-[3-(1,1,2,2-tetrafluoroethoxy)benzyl]ethyl]-6,7-dihydro-5H-benzo[a]cycloheptene-1-carboxamide] yielded a melting point of 176 to 177 °C. The IC50 against human CETP [1] amounted to 0.015 µM. This compound had an IC50 against human CETP [2] of 0.49 µM.

`O=C(N[C@H](Cc1cccc(OC(F)(F)C(F)F)c1)[C@@H](O)c1ccc(F)cc1)c1cccc2c1C=CCC2` (racemic) [Example 123, N-[(1RS,2SR)-2-(4-fluorophenyl)-2-hydroxy-1-[3-(1,1,2,2-tetrafluoroethoxy)benzyl]ethyl]-5,6-dihydronaphthalene-1-carboxamide]: the melting point lay within 165 to 166 °C. Also, half-maximal inhibition at human CETP [1] (IC50) required 0.035 µM. Besides, the IC50 against human CETP [2] worked out at 0.95 µM.

Regarding `O=C(N[C@H](Cc1cccc(OC(F)(F)C(F)F)c1)[C@@H](O)c1ccc(F)cc1)c1cccc2c1CCCCC2` (racemic) [Example 124, N-[(1RS,2SR)-2-(4-fluorophenyl)-2-hydroxy-1-[3-(1,1,2,2-tetrafluoroethoxy)benzyl]ethyl]-6,7,8,9-tetrahydro-5H-benzo[a]cycloheptene-1-carboxamide], the melting point was in the range of 194 to 195 °C. This compound also registered a half-inhibitory concentration (IC50) against human CETP [1] of 0.046 µM. Moreover, inhibition against human CETP [2] was half-maximal at 2.4 µM (IC50).

In the case of `O=C(N[C@H](Cc1cccc(OC(F)(F)C(F)F)c1)[C@@H](O)c1ccc(F)cc1)c1ccc(F)c2ccccc12` (racemic) [Example 125, 4-fluoro-N-[(1RS,2SR)-2-(4-fluorophenyl)-2-hydroxy-1-[3-(1,1,2,2-tetrafluoroethoxy)benzyl]ethyl]naphthalene-1-carboxamide], the melting point was in the range of 186 to 187 °C. The IC50 against human CETP [1] stood at 0.051 µM. At human CETP [2], this compound showed an IC50 of 2 µM.

In turn, `O=C(N[C@H](Cc1cccc(OC(F)(F)C(F)F)c1)[C@@H](O)c1ccc(F)cc1)c1cccc2c1C=CCCCC2` (racemic) [Example 126, N-[(1RS,2SR)-2-(4-fluorophenyl)-2-hydroxy-1-[3-(1,1,2,2-tetrafluoroethoxy)benzyl]ethyl]-5,6,7,8-tetrahydrobenzo[a]cyclooctene-1-carboxamide] displayed a melting point of 189 to 190 °C. The IC50 at human CETP [1] turned out to be 0.07 µM. The same compound had an IC50 against human CETP [2] of 1 µM.

On to `CC(C)c1ccc(C[C@@H](NC(=O)c2cccc3c2C=CCCC3)[C@@H](O)c2ccc(F)cc2)cc1` (racemic) [Example 155, N-[(1RS,2SR)-2-(4-fluorophenyl)-2-hydroxy-1-(4-isopropylbenzyl)ethyl]-6,7-dihydro-5H-benzo[a]cycloheptene-1-carboxamide], for which the melting point lay in the range of 168 to 169 °C. The compound further returned an IC50 against human CETP [1] of 0.095 µM. In addition, it took 2.1 µM to reach half-maximal inhibition on human CETP [2] (IC50).

Consider `O=C(N[C@H](Cc1cccc(OC(F)(F)C(F)F)c1)[C@@H](O)c1ccc(Cl)cc1)c1cccc2c1C=CCCC2` (racemic) [Example 216, N-[(1RS,2SR)-2-(4-chlorophenyl)-2-hydroxy-1-[3-(1,1,2,2-tetrafluoroethoxy)benzyl]ethyl]-6,7-dihydro-5H-benzo[a]cycloheptene-1-carboxamide], for which the melting point is 182 to 183 °C. Besides, it took 0.04 µM to reach half-maximal inhibition against human CETP [1] (IC50). This compound displayed a half-inhibitory concentration (IC50) against human CETP [2] of 0.7 µM.

Compound `CCc1cc(Oc2ccc([C@H](O)[C@@H](Cc3cccc(OC(F)(F)C(F)F)c3)NC(=O)c3cccc4c3C=CCCC4)cc2)ccc1Cl` (racemic) [Example 218, N-((1RS,2SR)-2-(4-((4-chloro-3-ethylphenyl)oxy)phenyl)-2-hydroxy-1-((3-((1,1,2,2-tetrafluoroethyl)oxy)phenyl)methyl)ethyl)-6,7-dihydro-5H-benzo[a]cycloheptene-1-carboxamide] had a melting point of 116 to 117 °C. At human CETP [1], this compound displayed a 50% inhibitory concentration (IC50) of 0.056 µM. Also, at human CETP [2], the IC50 was determined as 0.66 µM.

`O=C(N[C@H](Cc1cccc(OC(F)(F)C(F)F)c1)[C@@H](O)c1ccnc(F)c1)c1cccc2c1C=CCCC2` (racemic) [Example 220, N-((1RS,2SR)-2-(2-fluoropyridin-4-yl)-2-hydroxy-1-((3-(1,1,2,2-tetrafluoroethoxy)phenyl)methyl)ethyl)-6,7-dihydro-5H-benzo[a]cycloheptene-1-carboxamide] registered a melting point of 159 to 160 °C. Moreover, the 50% inhibitory concentration (IC50) against human CETP [1] turned out to be 0.03 µM. The same compound gave a half-inhibitory concentration (IC50) against human CETP [2] of 1.4 µM.

In turn, `O=C(N[C@H](Cc1ccc2c(c1)OC(F)(F)C(F)(F)O2)[C@@H](O)c1ccc(F)cc1)c1ccc(F)c2ccccc12` (racemic) [Example 271, 4-fluoro-N-{(1RS,2SR)-2-(4-fluorophenyl)-2-hydroxy-1-[(2,2,3,3-tetrafluoro-2,3-dihydro-1,4-benzodioxin-6-yl)methyl]ethyl}-1-naphthamide] registered a melting point of 193 to 194 °C. Moreover, on human CETP [1], the concentration for half-maximal inhibition (IC50) turned out to be 0.17 µM. This compound also yielded a half-inhibitory concentration (IC50) on human CETP [2] of 1.4 µM.

Take `CC(C)(C)c1ccc(C[C@@H](NC(=O)c2cccc3c(Cl)cccc23)[C@@H](O)c2cccc(Cl)c2)cc1` (racemic) [Example 274, N-[(1RS,2SR)-1-(4-tert-butylbenzyl)-2-(3-chlorophenyl)-2-hydroxyethyl]-5-chloro-1-naphthamide]: the melting point is 112 to 113 °C. Further, the concentration for half-maximal inhibition (IC50) against human CETP [1] was 0.052 µM. In addition, the IC50 on human CETP [2] is 3.1 µM.

Regarding `O=C(NC(Cc1ccc(C(F)(F)F)cc1)C(O)c1ccc(F)cc1)c1cccc2ccccc12` (stereo not drawn) [226(+)-form], the IC50 stood at 0.4 µM at human CETP [1] and 4.2 µM against human CETP [2].

Turning to `O=C(NC(Cc1ccc(C(F)(F)F)cc1)C(O)c1ccc(F)cc1)c1ccc(F)c2ccccc12` (stereo not drawn) [227(+)-form], the IC50 on human CETP [1] is 0.21 µM; at human CETP [2], 1.7 µM.

Turning to `O=C(NC(Cc1cccc(OC(F)(F)C(F)F)c1)C(O)c1ccc(F)cc1)c1ccc(F)c2ccccc12` (stereo not drawn) [228(+)-form], the IC50 was 0.03 µM against human CETP [1] and 0.99 µM on human CETP [2].

For `O=C(NC(Cc1cccc(OC(F)(F)C(F)F)c1)C(O)c1ccc(F)cc1)c1cccc2c1C=CCCC2` (stereo not drawn) [229(+)-form], the figures for the IC50 against human CETP [1] and at human CETP [2] were 0.0086 µM and 0.24 µM, respectively.
